Measurements: article PMC8110993, “Structure and antimicrobial activity of NCR169, a nodule-specific cysteine-rich peptide of Medicago truncatula” (Scientific Reports, 2021)
Where a SMILES comes first, the peptide text is derived from it.

Assays:
[1] = HPLC retention time as measure of surface hydrophobicity; type: physicochemical; conditions: C18 column, linear gradient 30 to 45% acetonitrile, 220 nm; compared with NCR169 oxidized forms
Method: Figure 1 Sample preparation of NCR169 peptides. (A) High-performance liquid chromatography (HPLC) analyses of NCR169 peptides. Purified NCR169-ox1, NCR-ox2, NCR169-red, and reoxidized NCR169-red (NCR-red + GSSG) were analyzed by HPLC with a linear gradient of 30 to 45% acetonitrile and monitored at 220 nm. (B) MALDI-TOF–MS spectra of HPLC-purified NCR169-ox1 (upper), NCR169-ox2 (middle), and NCR169-red (lower). (C) Amino acid sequences of NCR169 peptides used in this study. The cysteine numbers (C1 to C4) are indicated in red on the sequence. The experimentally determined disulfide linkage patterns are indicated by connecting lines on the sequences. The first N-terminal residue, G (underlined), is the extra residue remaining after tag cleavage.
(§1) To confirm it, we examined the solubility of NCR169 in various solvents, HEPES (salt-free), HEPES with salt (50 to 200 mM NaCl or KCl), and PBS. […] In other words, the disulfide bonds of NCR169 contribute to its solubility.
To prepare the reduced peptide (NCR169-red), NCR169-ox was reduced with 10 mM tris(2-carboxyethyl)phosphine (TCEP) at pH 10.5, followed by acidification using trifluoroacetate (TFA) and HPLC purification with a C18 column and 30–45% ACN gradient. The fractions were collected and dried under vacuum conditions. The purified peptides were confirmed using MALDI-TOF–MS.

[2] = type: physicochemical; conditions: 20 mM HEPES pH 7.0 salt-free, or with 50 to 200 mM NaCl or KCl, and PBS pH 7.4; 1 h room temperature, centrifuged 20,000 × g, supernatant by Tricine-SDS-PAGE
Method: as §1
Supplementary Figure S3. Solubility assessment of NCR169. The same amount of NCR169 was dissolved in various solvents. After incubation at room temperature for 1 h, the solution was centrifuged at 20,000 × g and the supernatant was analyzed by Tricine-SDS-PAGE. […]

## CC[C@H](C)[C@H](NC(=O)CNC(=O)[C@H](CS)NC(=O)[C@H](Cc1ccc(O)cc1)NC(=O)[C@H](CCCCN)NC(=O)[C@@H](NC(=O)[C@H](Cc1c[nH]cn1)NC(=O)CNC(=O)[C@@H](NC(=O)[C@H](CC(=O)O)NC(=O)[C@H](CCC(=O)O)NC(=O)CN)[C@@H](C)CC)[C@@H](C)CC)C(=O)N[C@H](C(=O)N[C@@H](CC(=O)O)C(=O)N[C@@H](CC(=O)O)C(=O)N[C@@H](CS)C(=O)N[C@@H](Cc1ccc(O)cc1)C(=O)N[C@@H](CCCCN)C(=O)N[C@@H](CO)C(=O)N[C@@H](CCCCN)C(=O)N[C@@H](CCCCN)C(=O)N1CCC[C@H]1C(=O)N[C@@H](CC(C)C)C(=O)N[C@@H](Cc1ccccc1)C(=O)N[C@@H](CCCCN)C(=O)N[C@H](C(=O)N[C@@H](Cc1c[nH]c2ccccc12)C(=O)N[C@@H](CCCCN)C(=O)N[C@@H](CS)C(=O)N[C@H](C(=O)N[C@@H](CCC(=O)O)C(=O)N[C@@H](CC(N)=O)C(=O)N[C@H](C(=O)N[C@@H](CS)C(=O)N[C@H](C(=O)N[C@@H](CC(C)C)C(=O)N[C@@H](Cc1c[nH]c2ccccc12)C(=O)N[C@@H](Cc1ccc(O)cc1)C(=O)N[C@@H](CCCCN)C(=O)O)C(C)C)C(C)C)C(C)C)[C@@H](C)CC)C(C)C [NCR169-red] (H-GEDIGHIKYCGIVDDCYKSKKPLFKIWKCVENVCVLWYK-OH)
[1]
  HPLC retention time (hydrophobicity of molecular surface): longer than that of the NCR169 oxidized forms
[2]
  Solubility in various solvents: insoluble in all conditions except the salt-free buffer
